In assay [1] the target is T1, human muscarinic M3 receptor (Homo sapiens, UniProt P20309).
T1 construct: purchased Perkin Elmer; host or cells: CHO-K1 cells (membranes)
The experiment in a line: Human muscarinic M3 receptor binding assay ([3H]-NMS, CHO-K1 cell membranes). On the procedure:
Test 2: Human Muscarinic M1, M2, M3, M4 and M5 Receptors Binding Assays
The study of binding to human muscarinic M1, M2, M3, M4 and M5 receptors was performed using commercial membranes (Perkin Elmer) prepared from CHO-K1 cells. Radioligand binding experiments were conducted in 96 polypropylene well plates in a total volume of 200 μl. All reagents were dissolved in assay binding buffer (PBS with calcium and magnesium, SIGMA), except compounds that were dissolved in DMSO 100%. Non-specific binding (NSB) was measured in the presence of 1 μM atropine. [3H]-NMS was used as the radioligand at a concentration of 1 nM for M2, M3 and M5 and 0.3 nM for M1 and M4. [3H]-NMS and antagonists were incubated with membranes that express human muscarinic receptors M1, M2, M3, M4 and M5 at concentrations of 8.1, 10, 4.9, 4.5 and 4.9 μg/well, respectively.
After an incubation period of two hours with gentle shaking, 150 μl of the reaction mix were transferred to 96 GF/C filter plates (Millipore), previously treated with wash buffer (Tris 50 mM; NaCl 100 mM; pH:7.4), containing 0.05% PEI (Sigma) during one hour. Bound and free [3H]-NMS were separated by rapid vacuum filtration in a manifold from Millipore and washed four times with ice cold wash buffer. After drying 30 min, 30 μl of OPTIPHASE Supermix were added to each well and radioactivity quantified using a Microbeta microplate scintillation counter.
The affinity of each test compound to the receptors was determined by using ten different concentrations ran in duplicate. IC50s were calculated using Activity Base software from IDBS and the four parameters-log equation.

The target of assay [2] is T2, human adrenergic beta2 receptor (Homo sapiens, UniProt P07550).
T2 construct: purchased Perkin Elmer; host or cells: Sf9 cells (overexpressed; membranes)
In words: Human adrenergic β2 receptor binding assay (3H-CGP12177, Sf9 cell membranes). How it is done:
Typically said beta2-adrenergic binding assay comprises: • a) providing a membrane suspension comprising Sf9 cells in an assay buffer • b) incubating with 3H-CGP12177 in plates previously treated with assay buffer containing a coating agent • c) measuring binding of test compound in the presence of propanolol • d) maintaining incubation • e) terminating the binding reactions • f) determining the affinity of the test compound for the receptor by repeating steps a) to e) using multiple different test compound concentrations. • g) calculating an IC50 using the four parameters-log equation.
Test 1: Human Adrenergic β1 and β2 Receptor Binding Assays
The study of binding to human adrenergic beta1 and beta2 receptors was performed using commercial membranes prepared from Sf9 cells where they are overexpressed (Perkin Elmer). The membrane suspensions (16 μg/well for beta1 and 5 μg/well for beta2) in assay buffer (75 mM Tris/HCl with 12.5 mM MgCl2 and 2 mM EDTA pH=7.4) were incubated with 0.14 or 0.6 nM of 3H-CGP12177 (Amersham) for beta 1 and beta 2 receptors respectively in a final volume of 250 μl, in GFC Multiscreen 96 well plates (Millipore) previously treated with assay buffer containing 0.3% PEI (Sigma). Non specific binding was measured in the presence of 1 μM propanolol. Incubation was maintained for 60 minutes at room temperature and with gentle shaking. The binding reactions were terminated by filtration and washing with 2.5 volumes of Tris/HCl 50 mM pH=7.4. The affinity of each test compound to the receptor was determined by using ten different concentrations ran in duplicate. IC50s were calculated using Activity Base software from IDBS and the four parameters-log equation.

Where [3] appears, read: 1 nM [3H]-NMS, CHO-K1 membranes 4.9 μg/well, two hours incubation, read-out: Binding, IC50, nM M3.
Where [4] appears, read: 0.6 nM 3H-CGP12177, Sf9 membranes 5 μg/well, 60 min room temperature, read-out: Binding, IC50, nM β2.

Read-outs that look alike come from different tables or passages of the source.

T1 sequence (P20309 whole entry): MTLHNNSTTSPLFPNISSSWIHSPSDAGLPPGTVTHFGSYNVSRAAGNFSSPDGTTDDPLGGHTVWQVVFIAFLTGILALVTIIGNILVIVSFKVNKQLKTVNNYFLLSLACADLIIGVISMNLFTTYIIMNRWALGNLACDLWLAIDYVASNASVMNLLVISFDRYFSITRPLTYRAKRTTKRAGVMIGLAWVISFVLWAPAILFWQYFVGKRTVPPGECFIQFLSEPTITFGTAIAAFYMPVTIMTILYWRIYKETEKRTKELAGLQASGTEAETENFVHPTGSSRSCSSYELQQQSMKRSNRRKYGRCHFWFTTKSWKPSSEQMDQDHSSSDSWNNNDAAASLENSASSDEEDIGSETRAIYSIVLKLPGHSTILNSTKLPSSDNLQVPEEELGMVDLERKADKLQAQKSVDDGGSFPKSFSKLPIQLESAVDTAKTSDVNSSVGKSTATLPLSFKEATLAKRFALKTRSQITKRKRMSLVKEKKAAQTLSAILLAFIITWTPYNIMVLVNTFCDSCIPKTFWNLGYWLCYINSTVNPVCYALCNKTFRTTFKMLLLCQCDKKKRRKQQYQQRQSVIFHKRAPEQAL

One may read the IC50 as the concentration that gives 50% inhibition. On to “(3R)-1-azabicyclo[2.2.2]oct-3-yl(4-{4-[6-({[(2R)-2-hydroxy-2-(8-hydroxy-2-oxo-1,2-dihydroquinolin-5-yl)ethyl]amino}methyl)-2-oxo-1,3-benzoxazol-3(2H)-yl]butyl}biphenyl-2-yl)carbamate dihydrofluoride [Example 7]”, for which the IC50 came to 0.5 nM in assay [1] (setting [3]) and 30 nM in assay [2] (setting [4]).

Take “(3R)-1-azabicyclo[2.2.2]oct-3-yl(4-{5-[6-({[(2R)-2-hydroxy-2-(8-hydroxy-2-oxo-1,2-dihydroquinolin-5-yl)ethyl]amino}methyl)-2-oxo-1,3-benzoxazol-3(2H)-yl]pentyl}biphenyl-2-yl)carbamate dihydrofluoride [Example 31]”: the IC50 is 0.3 nM in assay [1] (setting [3]) and 19 nM in assay [2] (setting [4]).

Turning to “(3R)-1-azabicyclo[2.2.2]oct-3-yl(4-{4-[3-({[(2R)-2-hydroxy-2-(8-hydroxy-2-oxo-1,2-dihydroquinolin-5-yl)ethyl]amino}methyl)phenoxy]butyl}biphenyl-2-yl)carbamate dihydrofluoride [Example 9]”, the IC50 in assay [1] (setting [3]) stood at 0.68 nM; in assay [2] (setting [4]), 47 nM.

Consider “(3R)-1-azabicyclo[2.2.2]oct-3-yl(4-{4-[6-({[(2R)-2-hydroxy-2-(5-hydroxy-3-oxo-3,4-dihydro-2H-1,4-benzoxazin-8-yl)ethyl]amino}methyl)-2-oxo-1,3-benzoxazol-3(2H)-yl]butyl}biphenyl-2-yl)carbamate dihydrofluoride [Example 25]”, for which the values for the IC50 in assay [1] (setting [3]) and in assay [2] (setting [4]) were 0.14 nM and 1.5 nM, respectively.

For `O=C(Nc1ccc(CCCCn2c(=O)oc3cc(CNC[C@H](O)c4ccc(O)c5[nH]c(=O)ccc45)ccc32)cc1-c1ccccc1)O[C@H]1CN2CCC1CC2` [Example 22, (3R)-1-azabicyclo[2.2.2]oct-3-yl(5-{4-[6-({[(2R)-2-hydroxy-2-(8-hydroxy-2-oxo-1,2-dihydroquinolin-5-yl)ethyl]amino}methyl)-2-oxo-1,3-benzoxazol-3(2H)-yl]butyl}biphenyl-2-yl)carbamate], the IC50 in assay [1] is 1 nM; in assay [2], 8.5 nM.

On to “trans-4-[methyl(3-phenylpropyl)amino]cyclohexyl[4-(4-{[4-({[(2R)-2-hydroxy-2-(8-hydroxy-2-oxo-1,2-dihydroquinolin-5-yl)ethyl]amino}methyl)phenyl]amino}-4-oxobutyl)biphenyl-2-yl]carbamate dihydrofluoride [Example 40]”, for which the IC50 in assay [1] (setting [3]) was found to be 0.78 nM; in assay [2] (setting [4]), 2 nM.

With “1-azabicyclo[2.2.2]oct-4-yl[4-(4-{[6-({[(2R)-2-hydroxy-2-(8-hydroxy-2-oxo-1,2-dihydroquinolin-5-yl)ethyl]amino}methyl)pyridin-3-yl]amino}-4-oxobutyl) biphenyl-2-yl]carbamate dihydrofluoride [Example 68]”, the IC50 was 1.7 nM in assay [1] (setting [3]) and 23 nM in assay [2] (setting [4]).

Consider “trans-4-aminocyclohexyl(4-{5-[6-({[(2R)-2-hydroxy-2-(8-hydroxy-2-oxo-1,2-dihydroquinolin-5-yl)ethyl]amino}methyl)-2-oxo-1,3-benzoxazol-3(2H)-yl]pentyl}biphenyl-2-yl)carbamate dihydrofluoride [Example 29]”, for which the figures for the IC50 in assay [1] (setting [3]) and in assay [2] (setting [4]) were 1.1 nM and 19 nM, respectively.

For “(3R)-1-azabicyclo[2.2.2]oct-3-yl(4-{4-[6-({[(2R)-2-hydroxy-2-(8-hydroxy-2-oxo-1,2-dihydroquinolin-5-yl)ethyl]amino}methyl)-2-oxo-1,3-benzothiazol-3(2H)-yl]butyl}biphenyl-2-yl)carbamate dihydrofluoride [Example 16]”, the concentration for half-maximal inhibition (IC50) came to 0.65 nM in assay [1] (setting [3]) and 12 nM in assay [2] (setting [4]).

On to “1-azabicyclo[2.2.2]oct-4-yl[4-(4-{[2-chloro-4-({[(2R)-2-hydroxy-2-(8-hydroxy-2-oxo-1,2-dihydroquinolin-5-yl)ethyl]amino}methyl)-5-methoxybenzoyl]amino}butyl)biphenyl-2-yl]carbamate dihydrofluoride [Example 67]”, for which the values for the IC50 in assay [1] (setting [3]) and in assay [2] (setting [4]) were 0.41 nM and 8.2 nM, respectively.

The record behind these values is patent US9518050B2, “Cyclohexyl and quinuclidinyl carbamate derivatives having β2 adrenergic agonist and M3 muscarinic antagonist activity” (priority 2012, dated 2016).
